ChEMBL document CHEMBL1157539, “Thousands of chemical starting points for antimalarial lead identification” (Nature, 2010)

test system: Plasmodium falciparum; assay: GSK_TCMDC: Inhibition of Plasmodium falciparum 3D7 in whole erythrocytes, using parasite LDH activity as an index of growth.; format: functional, organism-based; details: Plasmodium falciparum, 3D7

Row | SMILES | XC50 [nM]
1 | CCCCOc1cc(CNCCCCCCNCc2cc(OCCCC)cc3ccccc23)c2ccccc2c1 | 736
2 | CC1CN(c2cnn(C/C=C/c3ccc(NC(=O)c4ccc5nonc5c4)cc3)c(=O)c2Cl)CC(C)N1 (stereo not drawn) | 786
3 | O=C(Cc1ccsc1)NCC(c1ccccc1Cl)c1c[nH]c2ccccc12 (stereo not drawn) | 950
4 | COc1ccc2c(=O)c3ccc(OC)cc3[nH]c2c1 | 810
5 | CC(Cl)=CCc1c(C)nc2c(ccc3ccccc32)c1O | 198
6 | Oc1ccc(Nc2nc(NCc3ccco3)c3ccccc3n2)cc1 | 674
7 | N#CN1CC[C@@H](OC(=O)N[C@@H]2C[C@H]2c2ccccc2)C1 | 1340
8 | COC(=O)c1cc(OC)c(OC)cc1NC(=O)NC12CC3CC(CC(C3)C1)C2 | 879
9 | Cc1cc(C(=O)N(Cc2ccc(-c3ccc(CNCCc4ccc(S(C)(=O)=O)cc4)cn3)cc2)C(C)CN(C)C)ccc1[N+](=O)[O-] (stereo not drawn) | 789
10 | Cc1cc(N[C@@H](Cc2ccccc2)C(=O)NCCc2ccccc2)nc(NCCc2ccccc2)n1 | 850
11 | COc1ccc(CNC2CCN(C)CC2)cc1-c1ccc(S(=O)(=O)NC2CCC2)c(F)c1 | 840
12 | Cc1ccc(NC(=O)NC2CCN(CCCCCNC(=O)C3CC3c3ccc(Cl)c(Cl)c3)CC2)cc1 (stereo not drawn) | 540
13 | Cc1ccccc1CCNC(=O)c1cnc(N2CCN(c3ccncc3)CC2)c(Cl)c1 | 1060
14 | Cc1cccc2nc(-c3cccc(-c4cccc(NC(=O)Nc5ccc(F)c(F)c5F)c4)c3)[nH]c12 | 108
15 | COc1c(C2CCN(CCN3CCC(CNC(=O)c4ccc(-c5ccc(C#N)cc5)cc4)CC3)CC2)ccc2c1CCCC2 | 455
16 | Oc1cccc(-c2nc(-c3ccccc3)c(-c3ccc4oc5ccc(-c6[nH]c(-c7cccc(O)c7)nc6-c6ccccc6)cc5c4c3)[nH]2)c1 | 795
17 | COc1ccc2nc3cc(Cl)ccc3c(Nc3ccc(Sc4ccc(Nc5c6ccc(Cl)cc6nc6ccc(OC)cc56)cc4)cc3)c2c1 | 199
18 | CN(C)c1ccc(CN2CCC(CNC(=O)c3cc(-c4ccccc4F)cs3)C2)cc1 (stereo not drawn) | 911
19 | Cc1cccc(C)c1OC(=O)CSc1nnc(-c2ccccc2O)o1 | 884

Row | SMILES | XC50 [nM]
20 | Nc1ccnc(N2CCC(CCOc3ccnc4cc(Cl)ccc34)CC2)c1 | 1160
21 | O=C(CCc1c[nH]cn1)Nc1cccc(-c2ccc(-c3nc4ccccc4[nH]3)cc2)c1 | 651
22 | CCCCc1ccc(-c2c(N)nc(N)nc2CC)cc1 | 954
23 | COc1ccccc1CCCN1C(=O)C(c2ccccc2)(c2ccccc2)N=C1N | 265
24 | COC(=O)c1ccc(C(=O)NCCCCN2CCC(c3ccc4c(c3OC)CCCC4)CC2)cc1-c1ccc(C(F)(F)F)cc1 | 1150
25 | O=[N+]([O-])c1ccc(-c2ccc(C=NNc3nc(Nc4ccccc4)nc(Nc4ccccc4)n3)o2)cc1 | 1430
26 | O=C(Nc1ccc(Br)cc1)c1cc(Br)ccc1NS(=O)(=O)c1ccc(C(F)(F)F)cc1 | 180
27 | CC(=O)Nc1ccc(CCNC(C)Cc2ccc(C(=O)Nc3ccc(CC(C)NCCc4cccc(Cl)c4)cc3)cc2)cc1 (stereo not drawn) | 330
28 | Cc1cc2nc(-c3ccc(OCC(=O)NCc4cccc(C(F)(F)F)c4)cc3)[nH]c2cc1C | 988
29 | O=C(/C=C/c1ccc(Cl)c(Cl)c1)NCCCCCN1CCC(CCNC(=O)C2(c3ccc(Cl)cc3)CC2)CC1 | 925
30 | CC(=O)C1(c2ccccc2)CCN(CCC2(c3ccc(Cl)c(Cl)c3)CN(C(=O)C3CCCC3)CCO2)CC1 (stereo not drawn) | 798
31 | CNCCc1c(O)ccc2ccccc12 | 804
32 | O=C(Nc1ccc(Cl)cc1)Nc1cccc(-c2ccc(-c3nc4cc(F)ccc4[nH]3)cc2)c1 | 47.5
33 | O=C(NCCCCN1CCC(O)(c2ccc(Cl)cc2)CC1)c1ccc(Br)cc1 | 1250
34 | NCCCNc1nc(Nc2cccc(C(N)=O)c2)c2c(=O)[nH]ccc2n1 | 594
35 | O=C(NCCCCN1CCC(c2ccc3c(c2OCc2ccncc2)CCCC3)CC1)c1ccc(-c2ccc(C(F)(F)F)cc2)cc1 | 168
36 | Cc1ccc(S(=O)(=O)N2CCCN(C(=O)c3cc(-c4ccccc4)[nH]n3)CC2)cc1 | 84.3
37 | O=S(=O)(c1ccccc1)n1ccc2cc(Nc3ncnc4cc(C#C[C@H]5CCCN5)sc34)ccc21 | 1070
38 | Cc1ccc(NCC(=O)Nc2ccc(F)c(Cl)c2)cc1S(=O)(=O)N1CCOCC1 | 57.6
